Experimental data from patent US9474790B2, “Stable, protracted GLP-1/glucagon receptor co-agonists for medical use” (Novo Nordisk A/S, priority 2013, dated 2016).
Numbered stars: 1 amine (or outer) side, 2 acyl side, 3 side chain; on linkers, the order of the positions; unused ones are H or OH. Square brackets hold non-standard residues; d marks the D form. Side chains are listed from the residue outwards. Peptide text beside a SMILES is read from it. * marks the point of attachment. C18 diacid = O=C(O)CCCCCCCCCCCCCCCCC(=O)*; γGlu = O=C(O)[C@H](CCC(=O)[*:2])N[*:1]; AEEA = NCCOCCOCC(=O)O; Aib = CC(C)(N)C(=O)O

Experiment: in vivo
Parameters: species or system c57/BL6 mice
Conditions: male, c57/BL6, mouse, sc, 10 nmol/kg
Method: The purpose of this assay was to assess the pharmocokinetic profiles of the glucagon derivatives of the invention in mice. The pharmacokinetic profile of glucagon-GLP1 co-agonists was tested in normal male c57/BL6 mice (approximately body weight: 30 grams), in a sparse sampling design with for example 3 mice represented at each time point (for example: t=0.25, 0.5, 1, 3, 6, 10, 24, 30 and 48 hours). The compound was dosed as a single subcutaneous dose of 10 nmol/kg at t=0. The plasma levels of the glucagon-GLP1 co-agonist compounds were determined using an ELISA/LOCI assay (see Example 80 herein). Pharmacokinetic calculations such as half-life (T1/2) maximum concentration (Cmax) and time for maximum concentration (Tmax) of the compounds were determined using the PC based software, Phoenix (WinNonLin version 6.3 from Pharsight, Certara). Samples were analysed for peptide levels using Luminescence Oxygen Channeling Immunoassay (LOCI). The donor beads were coated with streptavidin. Acceptor beads are conjugated with a monoclonal antibody specific to gGlu in the linker (NN454-1F31) while the second monoclonal antibody (1F120) specific for glucagon was biotinylated. Three reactants were combined with the analyte and formed a two-sited immuno-complex. Illumination of the complex released singlet oxygen atoms from the donor beads. They were channeled into the acceptor beads and triggered chemiluminescence which was measured in the EnVision plate reader. The amount of emitted light is proportional to the concentration of peptide. One μL sample/calibrator/control was applied to the wells of 384-well LOCI plates followed by a 15 μL mixture of the antibody-coated acceptor beads (0.5 μg/well) and the biotinylated antibody. The plates were incubated over night at 21-22° C. Following incubation, 30 μL of the streptavidin-coated donorbeads (2 μg/well) was added to each well and incubated for 30 minutes at 21-22° C. The plates were read in an Envision plate reader at 21-22° C. with a filter having a bandwidth of 520-645 nm after excitation by a 680 nm laser. The total measurement time per well was 210 ms including a 70 ms excitation time.

| Cmax [nM] | Tmax [h] | half-life [h] | Compound |
| --- | --- | --- | --- |
| 45 | 3 | 23 | CC(C)C[C@H](NC(=O)[C@H](CC(C)C)NC(=O)[C@H](Cc1c[nH]c2ccccc12)NC(=O)[C@H](CCC(N)=O)NC(=O)[C@@H](NC(=O)[C@H](Cc1ccccc1)NC(=O)[C@H](CCC(=O)O)NC(=O)[C@H](CCC(N)=O)NC(=O)[C@H](C)NC(=O)[C@H](C)NC(=O)[C@H](CCCCN)NC(=O)[C@H](CO)NC(=O)[C@H](CC(=O)O)NC(=O)[C@H](CC(C)C)NC(=O)[C@H](Cc1ccc(O)cc1)NC(=O)[C@H](CCCCN)NC(=O)[C@H](CO)NC(=O)[C@H](CC(C)C)NC(=O)[C@H](CC(=O)O)NC(=O)[C@H](CO)NC(=O)[C@@H](NC(=O)[C@H](Cc1ccccc1)NC(=O)[C@@H](NC(=O)CNC(=O)[C@H](CCC(N)=O)NC(=O)C(C)(C)NC(=O)[C@@H](N)Cc1c[nH]cn1)[C@@H](C)O)[C@@H](C)O)C(C)C)C(=O)N[C@@H](CC(N)=O)C(=O)N[C@@H](CCCCNC(=O)CC[C@H](NC(=O)CC[C@H](NC(=O)COCCOCCNC(=O)COCCOCCNC(=O)CC[C@H](NC(=O)CCCCCCCCCCCCCCCCC(=O)O)C(=O)O)C(=O)O)C(=O)O)C(N)=O [Example 8, N^ε29-[(4S)-4-carboxy-4-[[(4S)-4-carboxy-4-[[2-[2-[2-[[2-[2-[2-[[(4S)-4-carboxy-4-(17-carboxyheptadecanoylamino)butanoyl]amino]ethoxy]ethoxy]acetyl]amino]ethoxy]ethoxy]acetyl]amino]butanoyl]amino]butanoyl]-[Aib2,Leu10,Lys17,Ala18,Glu21,Leu27,Lys29]-Glucagon amide] (H-H[Aib]QGTFTSDLSKYLDSKAAQEFVQWLLNK([γGlu-γGlu-AEEA-AEEA-γGlu-C18 diacid])-NH2; N-terminus assumed) |
| 24.4 | 3 | 14 | CC(C)C[C@H](NC(=O)[C@H](CC(C)C)NC(=O)[C@H](Cc1c[nH]c2ccccc12)NC(=O)[C@H](CCC(N)=O)NC(=O)[C@@H](NC(=O)[C@H](Cc1ccccc1)NC(=O)[C@H](CCC(=O)O)NC(=O)[C@H](CCCNC(=N)N)NC(=O)[C@H](C)NC(=O)[C@H](CCCNC(=N)N)NC(=O)[C@H](CCCNC(=N)N)NC(=O)[C@H](CO)NC(=O)[C@H](CC(=O)O)NC(=O)[C@H](CC(C)C)NC(=O)[C@H](Cc1ccc(O)cc1)NC(=O)[C@H](CCCCN)NC(=O)[C@H](CO)NC(=O)[C@H](CC(C)C)NC(=O)[C@H](CC(=O)O)NC(=O)[C@H](CO)NC(=O)[C@@H](NC(=O)[C@H](Cc1ccccc1)NC(=O)[C@@H](NC(=O)CNC(=O)[C@H](CCC(N)=O)NC(=O)C(C)(C)NC(=O)[C@@H](N)Cc1c[nH]cn1)[C@@H](C)O)[C@@H](C)O)C(C)C)C(=O)N[C@@H](CC(N)=O)C(=O)N[C@@H](CCCCNC(=O)CC[C@H](NC(=O)CC[C@H](NC(=O)COCCOCCNC(=O)COCCOCCNC(=O)CC[C@H](NC(=O)CCCCCCCCCCCCCCCCC(=O)O)C(=O)O)C(=O)O)C(=O)O)C(N)=O [Example 12, N^ε29-[(4S)-4-carboxy-4-[[(4S)-4-carboxy-4-[[2-[2-[2-[[2-[2-[2-[[(4S)-4-carboxy-4-(17-carboxyheptadecanoylamino)butanoyl]amino]ethoxy]ethoxy]acetyl]amino]ethoxy]ethoxy]acetyl]amino]butanoyl]amino]butanoyl]-[Aib2,Leu10,Arg20,Glu21,Leu27,Lys29]-Glucagon amide] (H-H[Aib]QGTFTSDLSKYLDSRRAREFVQWLLNK([γGlu-γGlu-AEEA-AEEA-γGlu-C18 diacid])-NH2) |
